# Results reported in patent publication US20170114029A1, “TREATMENT OF CHAGAS DISEASE” (UNIVERSITY OF DUNDEE, priority 2014, published 2017).
# Test system: T. cruzi Tulahuen strain C2C4
# Assay: Activity against T. cruzi (beta-galactosidase expressing parasites in L-6 cells)
# Format: cell-based, Trypanosoma cruzi
# Details: Trypanosoma cruzi, TULAHUEN, L6, in Rattus norvegicus, 96 h, trypomastigotes in rat skeletal myoblasts (L-6 cells), 96 h incubation, CPRG/Nonidet read at 540 nm; read-out: Activity (IC50)
# Method: Activity against T. cruzi. Rat skeletal myoblasts (L-6 cells) were seeded in 96-well microtitre plates at 2000 cells/well in 100 μL RPMI 1640 medium with 10% FBS and 2 mM 1-glutamine. After 24 h the medium was removed and replaced by 100 μl per well containing 5000 trypomastigote forms of T. cruzi Tulahuen strain C2C4 containing the […] (Lac Z) gene (Buckner et al. 1996). After 48 h the medium was removed from the wells and replaced by 100 μl fresh medium with or without a serial drug dilution of eleven 3-fold dilution steps covering a range from 100 to 0.002 μg/ml. After 96 h of incubation the plates were inspected under an inverted microscope to assure growth of the controls and sterility. Then the substrate CPRG/Nonidet (50 μl) was added to all wells. A color reaction developed within 2-6 h and could be read photometrically at 540 nm. Data were analyzed with the graphic programme Softmax Pro (Molecular Devices), which calculated IC50 values by linear regression (Huber 1993) from the sigmoidal dose inhibition curves. Benznidazole is used as control (IC50 0.5±0.2 ug/ml). • Buckner, F. S., C. L. Verlinde, A. C. La Flamme, and W. C. Van Voorhis. 1996. Efficient technique for screening drugs for activity against Trypanosoma cruzi using parasites expressing beta-galactosidase, p. 2592-2597, vol. 40. • Huber, W. Koella, J. C. 1993. A comparison of the three methods of estimating EC50 in studies of drug resistance of malaria parasites. Acta Trop. 55, 257-261.
row,SMILES,IC50
1,"CC(=O)Nc1cnc2[nH]c(=O)n([C@H]3CC[C@H](C(C)(C)C)CC3)c(=O)c2c1 [Example 33, N-[3-(trans-4-tert-Butyl-cyclohexyl)-2,4-dioxo-1,2,3,4-tetrahydro-pyrido[2,3-d]pyrimidin-6-yl]-acetamide]",0.196 µg/mL
2,"CC(=O)Nc1ccc2[nH]c(=O)n(CCC3CCCCC3)c(=O)c2c1 [Example 3, N-[3-(2-Cyclohexylethyl)-2,4-dioxo-1,2,3,4-tetrahydroquinazolin-6-yl]acetamide]",0.162 µg/mL
3,"CCC[C@H]1CC[C@H](n2c(=O)[nH]c3ccc(NC(C)=O)cc3c2=O)CC1 [Example 58, N-(2,4-Dioxo-3-((1s,4r)-4-propylcydohexyl)-1,2,3,4-tetrahydroquinazolin-6-yl)acetamide]",0.007 µg/mL
4,"CC(C)(C)[C@H]1CC[C@@H](n2c(=O)[nH]c3ncc(N)cc3c2=O)CC1 [Example 27, 6-Amino-3-((1 S,4S)-4-(tert-butyl)-cyclohexyl)pyrido[2,3-d]pyrimidine-2,4(1H.3H)-dione]",0.289 µg/mL
5,"O=c1[nH]c2ccc(-c3ccncc3)cc2c(=O)n1CCC1CCCCC1 [Example 19, 3-(2-Cyclohexylethyl)-6-(pyridin-4-yl)quinazoline-2,4(1H,3H)-dione]",0.605 µg/mL
6,"CC(=O)Nc1ccc2[nH]c(=O)n([C@H]3CC[C@H](C(C)(C)C)CC3)c(=O)c2c1 [Example 49, N-(3-((1r,4r)-4-(tert-butyl)cyclohexyl)-2,4-dioxo-1,2,3,4-tetrahydroquinazolin-6-yl)acetamide]",0.008 µg/mL
7,"CC(C)(C)[C@H]1CC[C@H](n2c(=O)[nH]c3ccc(N)cc3c2=O)CC1 [23b (trans), 6-amino-3-(trans-4-tert-butyl-cyclohexyl)-1H-quinazoline-2,4-dione]",0.03 µg/mL
8,"CC(C)(C)C1CCC(n2c(=O)[nH]c3ccc(-c4cccnc4)cc3c2=O)CC1 (centres unmarked) [Example 22, 3-(4-(tert-butyl)cyclohexyl)-6-(pyridin-3-yl)quinazoline-2,4(1H,3H)-dione]",2.63 µg/mL
9,"Nc1ccc2[nH]c(=O)n(CCC3CCCCC3)c(=O)c2c1 [Example 9, 6-Amino-3-(2-cyclohexylethyl)quinazoline-2,4(1H,3H)-dione]",0.339 µg/mL
10,"CCNc1ccc2c(c1)c(=O)n(CCC1CCCCC1)c(=O)n2CC [Example 12b, 3-(2-cyclohexylethyl)-1-ethyl-6-(ethylamino)quinazoline-2,4(1H,3H)-dione]",7.7 µg/mL
11,"CC(=O)Nc1ccc2[nH]c(=O)n([C@H](C)C3CCCCC3)c(=O)c2c1 [Example 2, (R)—N-(3-(1-cyclohexylethyl)-2,4-dioxo-1,2,3,4-tetrahydroquinazolin-6-yl)acetamide]",0.724 µg/mL
12,"CC(=O)Nc1ccc2[nH]c(=O)n([C@H]3CC[C@H](C(C)C)CC3)c(=O)c2c1 [Example 48, N-(3-((1r,4r)-4-Isopropylcyclohexyl)-2,4-dioxo-1,2,3,4-tetrahydroquinazolin-6-yl)acelamide]",0.018 µg/mL
13,"O=c1[nH]c2ccc(-c3cncnc3)cc2c(=O)n1CCC1CCCCC1 [Example 18, 3-(2-Cyclohexylethyl)-6-(pyrimidin-5-yl)quinazoline-2,4(1H,3H)-dione]",4.93 µg/mL
14,"CC(=O)Nc1cnc2[nH]c(=O)n(CCC3CCCCC3)c(=O)c2c1 [Example 39, N-(3-(2-cyclohexylethyl)-2,4-dioxo-1,2,3,4-tetrahydropyrido[2,3-d]pyrimidin-6-yl)acetamide]",0.755 µg/mL
15,"O=C(Nc1ccc2[nH]c(=O)n(CCC3CCCCC3)c(=O)c2c1)c1ccccc1 [Example 14c, N-(3-(2-Cyclohexylethyl)-2,4-dioxo-1,2,3,4-tetrahydroquinazolin-6-yl)benzamide]",5.88 µg/mL
16,"CC(C)(C)[C@H]1CC[C@H](n2c(=O)[nH]c3ncc(N)cc3c2=O)CC1 [Example 26e, 6-Amino-3-(trans-4-tert-butyl-cyclohexyl)-1H-pyrido[2,3-d]pyrimidine-2,4-dione]",0.209 µg/mL
17,"CC(=O)Nc1ccc2[nH]c(=O)n(C(CC3CCCCC3)C(N)=O)c(=O)c2c1 (centres unmarked) [Example 7, 2-(6-Acetamido-2,4-dioxo-1,4-dihydroquinazolin-3(2H)-yl)-3-cyclohexylpropanamide]",63.6 µg/mL
18,"Cc1noc(C)c1-c1ccc2[nH]c(=O)n(CCC3CCCCC3)c(=O)c2c1 [Example 16c, 3-(2-Cyclohexylethyl)-6-(3,5-dimethylisoxazol-4-yl)quinazoline-2,4(1H,3H)-dione]",11.5 µg/mL
19,"CC[C@H]1CC[C@@H](n2c(=O)[nH]c3ccc(N)cc3c2=O)CC1 [24 (cis), 6-Amino-3-(cis-4-ethyl-cyclohexyl)-1H-quinazoline-2,4-dione]",0.096 µg/mL

# Same assay, conditions: trypomastigotes in rat skeletal myoblasts (L-6 cells), 96 h incubation, CPRG/Nonidet read at 540 nm
row,SMILES,Activity (IC50)
1,"CCC1CCC(n2c(=O)[nH]c3ncc(NC(C)=O)cc3c2=O)CC1 (centres unmarked) [Example 36, N-(3-((1s,4s)-4-ethylcyclohexyl)-2,4-dioxo-1,2,3,4-tetrahydropyrido[2,3-d]pyrimidin-6-yl)acetamide]",0.110 µg/mL
